US20100130616A1, “SALT OF ALISKIREN WITH OROTIC ACID” (NOVARTIS AG, priority 2006, published 2010)
Where a name gives a salt, the structure may show the parent alone.

What was measured:
Assay type in all cases: physicochemical
[1] = 1-Week Chemical Stability Test, total impurities by HPLC-UV 230 nm
Excerpt: (§1) The exceptional stability of the orotate salt of aliskiren towards water may also be shown in stability tests.

[2] = dynamic vapour sorption (DVS-1), isothermal water absorption or loss as a function of relative humidity; conditions: for Change in Mass (%) Desorption / Change in Mass (%) Sorption: 25° C., 2 hours after equilibration
Experimental: A clear characterisation of this property is achieved by means of isothermal measurements over predetermined time intervals and predetermined relative humidity using dynamic vapour sorption (DVS-1 from the company Surface Measurement Systems LTD, Marlow, Buckinghamshire, UK). Table 2 illustrates the mass change, i.e. the water absorption or loss as a function of relative humidity at 25° C. for a sample of the orotate salt of aliskiren and for a period of 2 hours after equilibration at each humidity level. The change in mass during the sorption and desorption cycle are shown. The measurement error of this sorption method based on thermogravimetry is about 0.1%.

[3] = stability test towards water, water content after storage; conditions: open container and sealed ampoule, four weeks at 40° C. and 75% relative humidity
Excerpt: as §1

Structure (SMILES)	Total Impurities (HPLC-UV, 230 nm), % ([1]; 1 week, 50 C. sealed) [%]	Total Impurities (HPLC-UV, 230 nm), % ([1]; 1 week, 50 C./75% RH) [%]	Total Impurities (HPLC-UV, 230 nm), % ([1]; 1 week, 80 C. sealed) [%]	Total Impurities (HPLC-UV, 230 nm), % ([1]; 1 week, 80 C./75% RH) [%]	Total Impurities (HPLC-UV, 230 nm), % ([1]; Unstressed) [%]	moisture uptake ([2]; at 80% r.h.) [%]	hygroscopicity ([2]; from moisture uptake at 80% r.h.)	Change in Mass (%) Desorption ([2]; relative humidity 0%) [%]	Change in Mass (%) Sorption ([2]; relative humidity 0%) [%]	Change in Mass (%) Desorption ([2]; relative humidity 30%) [%]	Change in Mass (%) Sorption ([2]; relative humidity 30%) [%]	Change in Mass (%) Desorption ([2]; relative humidity 50%) [%]	Change in Mass (%) Sorption ([2]; relative humidity 50%) [%]	Change in Mass (%) Desorption ([2]; relative humidity 70%) [%]	Change in Mass (%) Sorption ([2]; relative humidity 70%) [%]	Change in Mass (%) Desorption ([2]; relative humidity 90%) [%]	Change in Mass (%) Sorption ([2]; relative humidity 90%) [%]	Change in Mass (%) Desorption ([2]; relative humidity 95%) [%]	Change in Mass (%) Sorption ([2]; relative humidity 95%) [%]	water content [3]
COCCCOc1cc(C[C@@H](C[C@H](N)[C@@H](O)C[C@H](C(=O)NCC(C)(C)C(N)=O)C(C)C)C(C)C)ccc1OC [HemiFumarate, aliskiren hemifumarate, reference compound]	1.1	9.3	18.1	64.3	1.1															
COCCCOc1cc(CC(C[C@H](N)[C@@H](O)CC(C(=O)NCC(C)(C)C(N)=O)C(C)C)C(C)C)ccc1OC (stereo partly shown) [orotate salt of aliskiren]	0.3	0.3	0.4	0.5	0.3	0.4	slightly-hygroscopic	0.011	0.000	0.611	0.133	0.852	0.214	1.326	0.307	2.818	0.673	7.104	7.104	remains constant
